For one data set, the target named is T1, hCRHR2 (Homo sapiens, UniProt Q13324).
T1 sequence (Q13324 1-411): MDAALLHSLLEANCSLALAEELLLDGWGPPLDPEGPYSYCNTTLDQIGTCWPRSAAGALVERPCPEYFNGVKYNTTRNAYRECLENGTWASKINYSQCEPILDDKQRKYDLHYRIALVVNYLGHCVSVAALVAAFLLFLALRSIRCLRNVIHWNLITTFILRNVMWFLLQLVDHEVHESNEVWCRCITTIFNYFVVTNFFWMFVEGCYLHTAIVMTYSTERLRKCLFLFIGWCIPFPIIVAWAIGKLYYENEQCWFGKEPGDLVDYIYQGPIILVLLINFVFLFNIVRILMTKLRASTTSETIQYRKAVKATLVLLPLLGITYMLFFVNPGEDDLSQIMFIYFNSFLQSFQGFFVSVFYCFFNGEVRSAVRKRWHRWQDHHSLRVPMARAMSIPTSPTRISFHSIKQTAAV
Briefly: HTRF cAMP assay, determination of hCRHR2 potency (peptide libraries 5 conc., purified peptides 11 conc.). The data set is classed as cell-based. In outline: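 Cells: CHO-K1/hCRHR2 stable clone, suspension, freshly thawed. Readout: competitive TR-FRET, anti-cAMP cryptate vs cAMP-d2. Analysis: sigmoid variable-slope nonlinear regression → EC50.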

In another data set the target is T2, hCRHR1 (Homo sapiens, UniProt P34998).
T2 sequence (P34998 24-415): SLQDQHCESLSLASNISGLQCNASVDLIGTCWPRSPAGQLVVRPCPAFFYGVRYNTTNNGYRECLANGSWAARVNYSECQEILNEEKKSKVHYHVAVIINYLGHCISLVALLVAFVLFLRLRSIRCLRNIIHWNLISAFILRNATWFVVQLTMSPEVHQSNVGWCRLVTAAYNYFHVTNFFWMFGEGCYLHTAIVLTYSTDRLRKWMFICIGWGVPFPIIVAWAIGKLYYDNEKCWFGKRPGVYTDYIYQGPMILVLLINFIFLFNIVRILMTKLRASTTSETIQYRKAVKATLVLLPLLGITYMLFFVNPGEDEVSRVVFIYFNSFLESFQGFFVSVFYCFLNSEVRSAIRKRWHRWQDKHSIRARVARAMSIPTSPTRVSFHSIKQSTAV
Put plainly: HTRF cAMP assay, determination of hCRHR1 potency (peptide libraries 5 conc., purified peptides 11 conc.). It is filed as cell-based. Put shortly:
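Cellular cAMP was read by time-resolved FRET between d2-labelled cAMP and cryptate anti-cAMP antibody. The cells were freshly thawed suspension CHO-K1 cells stably expressing human CRHR1.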

Data set [1] in a line: Thioflavin T fibril formation assay of purified peptides. Also on record: key: Amyloid fibril formation detected by an increase in ThT fluorescence was denoted with "Yes"; samples without increasing ThT fluorescence hence not forming amyloid fibrils were denoted "No". The data set is classed as physicochemical. The procedure: Thioflavin T fibril formation assay: Peptides were dissolved as 267 µM in 50 mM phosphate buffer pH 7.5 for 2 h at room temperature on a rocking table. The samples were then divided into three replicates of 80 µl/well and mixed with 2 µl/well Thioflavin T (ThT)to a final concentration of 4 µM ThT in a black 384 well microplate with a clear bottom (Greiner #781096). The plate was inserted in a CLARIOstar Plus microplate reader (BMG Labtech) and fibril formation was measured as an increase in fluorescence emission at 480 nm (excitation at 450 nm) during 96 h at 40°C with cycles of 5 min rest and 5 min linearshaking at700 rpm.
Compounds were dissolved to 200 µM (ca 1.0 mg/ml) in 50 mM phosphate buffer with preparation and ThT assay performed as described in the "General procedure for determination of fibril formation of peptides." above. Furthermore, samples were adjusted to pH values as indicated below. Additional co-formulations of compounds with semaglutide were prepared by dissolving compounds to 200 µM in commercially available semaglutide drug product (Ozempic®); these co-formulations were adjusted to pH 7.4.

A short description of data set [2]: Chemical stability of purified peptides (RP-UHPLC main peak purity loss). The data set is classed as physicochemical. The procedure:
Chemical stability was tested at a concentration of approximately of 1.0 mg/ml peptide in the following vehicles: 50 mM phosphate buffer pH 7.5. Dissolved samples were incubated for at least 2 h at room temperature on a rocking table. The main peak purity at time zero (T0) was determined using reversed phase chromatography. The samples were incubated at 40°C for 14 days (T14) and 28 days (T28). The samples were analyzed with reversed phase chromatography and size exclusion chromatography.
Reversed Phase chromatography was performed on a Thermo Dionex Ultimate UHPLC system with UV detection at 215 nm) and equipped with a Kinetex column (1.7 µm, C8, 100 Å, 150 x 2.1 mm (00F-4499-AN)). Analysis was performed by gradient elution with buffer A (0.1% TFA in 95:5 H2O:acetonitrile) and buffer B (0.1% TFA in 5:95 H2O: acetonitrile) at a column temperature of 50 °C (gradient used 25-55%B over 40 min. Flowrate was 0.5 mL/min. The main peak purity was determined from the integrated chromatogram as the area under the main peak relative to the total peak area. The purity loss was calculated as the difference between the T0 and T14 time point and/or as the difference between the T0 and T28 time point.
The chemical stability of selected peptides was evaluated at varying pH's at 40° C over 28 days. Samples were prepared and analysed as described in procedure with the addition of pH adjusting samples to the targets indicated below. As a comparator,r commercially available semaglutide drug product (Ozempic®, Novo Nordisk) was included in the sample set.

The conditions of data set [3]: pH 7.5.
The mark [4] stands for this setting: Table 5, purified peptides, read-out: hCRHR2 EC50.
[5] abbreviates: Table 5, purified peptides, read-out: hCRHR1 EC50.

SMILES strings stand for the structures. Where two headings read alike, the source gives them in different places. Starred links: 1 amine or outer side, 2 acyl side, 3 side chain; linkers in the order of their positions; H or OH if unused. Non-standard residues stand in square brackets, D forms with d. Residues, ends and D or L forms follow the SMILES beside them. Groups on a side chain read outwards from the residue. *: point of attachment. C20 diacid = O=C(O)CCCCCCCCCCCCCCCCCCC(=O)*; γGlu = O=C(O)[C@H](CCC(=O)[*:2])N[*:1]; Nle = CCCC[C@H](N)C(=O)O; AEEA = NCCOCCOCC(=O)O; Aib = CC(C)(N)C(=O)O

Consider `CC[C@H](C)[C@H](N)C(=O)N[C@H](C(=O)N[C@@H](CC(C)C)C(=O)N[C@@H](CO)C(=O)N[C@@H](CC(C)C)C(=O)N[C@@H](CC(=O)O)C(=O)N[C@H](C(=O)N1CCC[C@H]1C(=O)N[C@H](C(=O)NCC(=O)N[C@@H](CC(C)C)C(=O)N[C@@H](CC(C)C)C(=O)N[C@@H](CCC(N)=O)C(=O)N[C@H](C(=O)N[C@@H](CC(C)C)C(=O)N[C@@H](CC(C)C)C(=O)N[C@@H](CCC(=O)O)C(=O)N[C@@H](CCC(N)=O)C(=O)N[C@@H](C)C(=O)N[C@@H](CCCNC(=N)N)C(=O)N[C@@H](C)C(=O)N[C@@H](CCCNC(=N)N)C(=O)N[C@@H](C)C(=O)N[C@@H](C)C(=O)N[C@@H](CCCNC(=N)N)C(=O)N[C@@H](CCC(=O)O)C(=O)N[C@@H](CCC(N)=O)C(=O)N[C@@H](C)C(=O)N[C@@H](CCCCNC(=O)COCCOCCNC(=O)COCCOCCNC(=O)CC[C@H](NC(=O)CC[C@H](NC(=O)CCCCCCCCCCCCCCCCCCC(=O)O)C(=O)O)C(=O)O)C(=O)N[C@H](C(=O)N[C@@H](CC(N)=O)C(=O)N[C@@H](CC(C)C)C(=O)N[C@@H](CCC(=O)O)C(=O)N[C@H](C(=O)N[C@@H](CC(C)C)C(=O)N[C@@H](C)C(=O)N[C@@H](CCC(=O)O)C(=O)N[C@H](C(N)=O)C(C)C)[C@@H](C)CC)[C@@H](C)O)[C@@H](C)CC)[C@@H](C)CC)C(C)C)C(C)C` [SEQ ID NO: 12] (H-IVLSLDVPIGLLQILLEQARARAAREQAK([AEEA-AEEA-γGlu-γGlu-C20 diacid])TNLEILAEV-NH2), for which the “Selectivity ratio (hCRHR1/ hCRHR2)” value at hCRHR2 (hCRHR1-EC50/hCRHR2-EC50) is reported as more than 1136. Moreover, the EC50 on hCRHR2 (purified peptides, CHO-K1 cells stably expressing hCRHR2, cAMP HTRF, read-out: hCRHR2 EC50) was 4.4 nM; at hCRHR1 (purified peptides, CHO-K1 cells stably expressing hCRHR1, cAMP HTRF, read-out: hCRHR1 EC50), more than 5000 nM. Also, the “Fibrillation (pH 7.5)” value in data set [1] (pH 7.5, ThT assay) is on record as “No”. The “Chemical stability at pH 7.5 after 14 days at 40°C (% degradation)” value in data set [2] (pH 7.5, 40°C, 14 days, first value of cell) is -0.6%. Also, the “Chemical stability at pH 7.5 after 28 days at 40°C (% degradation)” value in data set [2] (pH 7.5, 40°C, 28 days, second value of cell) is given as -1.2%. Also, the “Solubility pH 7.5, target conc. =10 mg/mL (measured mg/mL)” value in data set [3] came out at 9.1 mg/mL.
Take `CCCC[C@H](NC(=O)[C@@H](NC(=O)[C@H](CCC(=O)O)NC(=O)[C@H](C)NC(=O)[C@H](CC(N)=O)NC(=O)C(C)(C)NC(=O)[C@H](CCCCNC(=O)COCCOCCNC(=O)COCCOCCNC(=O)CC[C@H](NC(=O)CC[C@H](NC(=O)CCCCCCCCCCCCCCCCCCC(=O)O)C(=O)O)C(=O)O)NC(=O)[C@H](C)NC(=O)[C@H](CCC(N)=O)NC(=O)[C@H](CCC(=O)O)NC(=O)[C@H](CCCNC(=N)N)NC(=O)[C@H](C)NC(=O)[C@H](C)NC(=O)[C@H](CCCNC(=N)N)NC(=O)[C@H](C)NC(=O)[C@H](CCCNC(=N)N)NC(=O)[C@H](C)NC(=O)[C@H](CCC(N)=O)NC(=O)[C@H](CCC(=O)O)NC(=O)[C@H](CC(C)C)NC(=O)[C@H](CC(C)C)NC(=O)[C@@H](NC(=O)[C@H](CCC(N)=O)NC(=O)[C@H](CC(C)C)NC(=O)[C@H](CC(C)C)NC(=O)CNC(=O)[C@@H](NC(=O)[C@@H]1CCCN1C(=O)[C@@H](NC(=O)[C@H](CC(=O)O)NC(=O)[C@H](CC(C)C)NC(=O)[C@H](CO)NC(=O)[C@H](CC(C)C)NC(=O)[C@@H](NC(=O)[C@@H](N)[C@@H](C)CC)C(C)C)C(C)C)[C@@H](C)CC)[C@@H](C)CC)[C@@H](C)CC)C(=O)N[C@@H](C)C(=O)N[C@@H](CCC(=O)O)C(=O)N[C@H](C(N)=O)[C@@H](C)CC` [compound 236] (H-IVLSLDVPIGLLQILLEQARARAAREQAK([AEEA-AEEA-γGlu-γGlu-C20 diacid])[Aib]NAEI[Nle]AEI-NH2): the “Selectivity ratio (hCRHR1/ hCRHR2)” value on hCRHR2 (Table 5) is given as more than 7463. In addition, the EC50 on hCRHR2 (setting [4]) is 0.67 nM; at hCRHR1 (setting [5]) it was more than 5000 nM. Besides, the “Fibrillation (pH 7.5)” value in data set [1] (pH 7.5) is recorded as “No”. In data set [2] (pH 7.5, 14 days, 40°C), the “Chemical stability at pH 7.5 after 14 days at 40°C (% degradation)” value was -1%. The “Chemical stability at pH 7.5 after 28 days at 40°C (% degradation)” value in data set [2] (pH 7.5, 28 days, 40°C) is -3%. Further, the “Solubility pH 7.5, target conc. =10 mg/mL (measured mg/mL)” value in data set [3] amounted to 10 mg/mL.
As for `CCCC[C@H](NC(=O)[C@@H](NC(=O)[C@H](CCC(=O)O)NC(=O)[C@H](C)NC(=O)[C@H](CC(N)=O)NC(=O)[C@@H](NC(=O)[C@H](CCCCNC(=O)COCCOCCNC(=O)COCCOCCNC(=O)CC[C@H](NC(=O)CC[C@H](NC(=O)CCCCCCCCCCCCCCCCCCC(=O)O)C(=O)O)C(=O)O)NC(=O)[C@H](C)NC(=O)[C@H](CCC(N)=O)NC(=O)[C@H](CCC(=O)O)NC(=O)[C@H](CCCNC(=N)N)NC(=O)[C@H](C)NC(=O)[C@H](C)NC(=O)[C@H](CCCNC(=N)N)NC(=O)[C@H](C)NC(=O)[C@H](CCCNC(=N)N)NC(=O)[C@H](C)NC(=O)[C@H](CCC(N)=O)NC(=O)[C@H](CCC(=O)O)NC(=O)[C@H](CC(C)C)NC(=O)[C@H](CC(C)C)NC(=O)[C@@H](NC(=O)[C@H](CCC(N)=O)NC(=O)[C@H](CC(C)C)NC(=O)[C@H](CC(C)C)NC(=O)CNC(=O)[C@@H](NC(=O)[C@@H]1CCCN1C(=O)[C@@H](NC(=O)[C@H](CC(=O)O)NC(=O)[C@H](CC(C)C)NC(=O)[C@H](CO)NC(=O)[C@H](CC(C)C)NC(=O)[C@@H](NC(=O)[C@@H](N)[C@@H](C)CC)C(C)C)C(C)C)[C@@H](C)CC)[C@@H](C)CC)[C@@H](C)O)[C@@H](C)CC)C(=O)N[C@@H](C)C(=O)N[C@@H](CCC(=O)O)C(=O)N[C@H](C(N)=O)[C@@H](C)CC` [compound 69] (H-IVLSLDVPIGLLQILLEQARARAAREQAK([AEEA-AEEA-γGlu-γGlu-C20 diacid])TNAEI[Nle]AEI-NH2), on hCRHR2 (Table 5), the “Selectivity ratio (hCRHR1/ hCRHR2)” value is given as more than 9259. For the same compound, the EC50 on hCRHR2 (setting [4]) is 0.54 nM; at hCRHR2 (library peptides, matched molecular pairs L vs Nle in position X^38, read-out: Potency hCRHR2 pEC50 (converted)) it was 0.2 nM; on hCRHR1 (setting [5]), more than 5000 nM; on hCRHR1 (library peptides, matched molecular pairs L vs Nle in position X^38, read-out: Potency hCRHR1 pEC50 (converted)), 3980 nM. Further, in data set [1] (pH 7.5), the “Fibrillation (pH 7.5)” value was “No”. In addition, in data set [2] (pH 7.5, 14 days, 40°C), the “Chemical stability at pH 7.5 after 14 days at 40°C (% degradation)” value was -0.5%. In data set [2] (pH 7.5, 28 days, 40°C), the “Chemical stability at pH 7.5 after 28 days at 40°C (% degradation)” value was -8.8%. Further, the “Solubility pH 7.5, target conc. =10 mg/mL (measured mg/mL)” value in data set [3] was 10 mg/mL.

The record behind these values is patent EP4810052A2, “HCRHR2 SELECTIVE POLYPEPTIDES” (Gubra A/S, priority 2023, dated 2026).
